{"source": "paper PMC5218480", "about": "(PLoS ONE, 2017)", "test_system": "MV-4-11 cells", "assay": "Gene expression microarray analysis (Affymetrix PrimeView) and GSEA", "type": "cell-based, human", "parameters": "RFU PODN (11730768_x_at) / Fold change /veh PODN (11730768_x_at) / RFU LINC00158 (11744669_a_at) / Fold change /veh LINC00158 (11744669_a_at) / RFU DUSP10 (11751237_a_at) / Fold change /veh DUSP10 (11751237_a_at) / RFU ID3 (11757404_x_at) / Fold change /veh ID3 (11757404_x_at) / RFU PLEKHG5 (11737974_s_at) / Fold change /veh PLEKHG5 (11737974_s_at) / RFU LRRC4B (11730491_at) / Fold change /veh LRRC4B (11730491_at) / RFU GIMAP4 (11747438_a_at) / Fold change /veh GIMAP4 (11747438_a_at) / RFU KRT8 (11758183_x_at) / Fold change /veh KRT8 (11758183_x_at) / RFU CNN1 (11734310_a_at) / Fold change /veh CNN1 (11734310_a_at) / RFU VPS37D (11726825_at) / Fold change /veh VPS37D (11726825_at) / RFU C10orf10 (11716522_x_at) / Fold change /veh C10orf10 (11716522_x_at) / RFU KIR2DL2 /// KIR2DL4 /// KIR2DL5A /// KIR2DL5B /// KIR2DS1 /// KIR2DS2 /// KIR2DS3 /// KIR2DS4 /// KIR3DL3 /// KIR3DL3 /// KIR3DS1 (11738374_at) / Fold change /veh KIR2DL2 /// KIR2DL4 /// KIR2DL5A /// KIR2DL5B /// KIR2DS1 /// KIR2DS2 /// KIR2DS3 /// KIR2DS4 /// KIR3DL3 /// KIR3DL3 /// KIR3DS1 (11738374_at) / RFU C1QL1 (11718748_at) / Fold change /veh C1QL1 (11718748_at) / RFU TMPRSS4 (11747572_a_at) / Fold change /veh TMPRSS4 (11747572_a_at) / RFU HAMP (11756126_x_at) / Fold change /veh HAMP (11756126_x_at) / RFU RNFT2 (11725882_a_at) / Fold change /veh RNFT2 (11725882_a_at) / RFU NR4A2 (11747474_a_at) / Fold change /veh NR4A2 (11747474_a_at) / RFU ABCC12 (11746883_a_at) / Fold change /veh ABCC12 (11746883_a_at) / RFU TMEM136 (11760407_x_at) / Fold change /veh TMEM136 (11760407_x_at) / RFU CLDN22 /// WWC2 (11732394_at) / Fold change /veh CLDN22 /// WWC2 (11732394_at) / RFU HLA-DPB1 (11760878_x_at) / Fold change /veh HLA-DPB1 (11760878_x_at) / RFU SPINT1 (11716480_a_at) / Fold change /veh SPINT1 (11716480_a_at) / RFU GAP43 (11754022_s_at) / Fold change /veh GAP43 (11754022_s_at) / RFU A4GNT (11735810_at) / Fold change /veh A4GNT (11735810_at) / RFU PRB3 (11715151_x_at) / Fold change /veh PRB3 (11715151_x_at) / RFU TUBB4B (11761932_at) / Fold change /veh TUBB4B (11761932_at) / RFU CAPN14 (11732068_a_at) / Fold change /veh CAPN14 (11732068_a_at) / RFU TMCC2 (11721928_a_at) / Fold change /veh TMCC2 (11721928_a_at) / RFU IRGQ (11745062_a_at) / Fold change /veh IRGQ (11745062_a_at) / RFU FAM174B (11720279_a_at) / Fold change /veh FAM174B (11720279_a_at) / RFU TMPRSS4 (11748680_a_at) / Fold change /veh TMPRSS4 (11748680_a_at) / RFU FAM212B (11763350_a_at) / Fold change /veh FAM212B (11763350_a_at) / RFU PLEKHG5 (11743358_a_at) / Fold change /veh PLEKHG5 (11743358_a_at) / RFU ZSCAN30 (11745921_a_at) / Fold change /veh ZSCAN30 (11745921_a_at) / RFU CMKLR1 (11741424_a_at) / Fold change /veh CMKLR1 (11741424_a_at) / RFU LOC101060620 /// MAPK8IP1 (11723275_at) / Fold change /veh LOC101060620 /// MAPK8IP1 (11723275_at) / RFU SPTSSB (11747773_x_at) / Fold change /veh SPTSSB (11747773_x_at) / RFU PRSS12 (11739890_at) / Fold change /veh PRSS12 (11739890_at) / RFU BIN1 (11741810_x_at) / Fold change /veh BIN1 (11741810_x_at) / RFU WNT11 (11732464_a_at) / Fold change /veh WNT11 (11732464_a_at) / RFU C10orf10 (11716521_a_at) / Fold change /veh C10orf10 (11716521_a_at) / RFU C5orf56 (11738089_at) / Fold change /veh C5orf56 (11738089_at) / RFU CYB561 (11721691_x_at) / Fold change /veh CYB561 (11721691_x_at) / RFU ANKRD19P (11752326_a_at) / Fold change /veh ANKRD19P (11752326_a_at) / RFU OR2T12 /// OR2T33 /// OR2T8 (11738714_s_at) / Fold change /veh OR2T12 /// OR2T33 /// OR2T8 (11738714_s_at) / RFU VCAN (11748164_a_at) / Fold change /veh VCAN (11748164_a_at) / RFU JSRP1 (11732532_at) / Fold change /veh JSRP1 (11732532_at) / RFU KRTAP10-11 (11738290_x_at) / Fold change /veh KRTAP10-11 (11738290_x_at) / RFU MYO3A (11730013_a_at) / Fold change /veh MYO3A (11730013_a_at) / RFU EBF3 (11725865_a_at) / Fold change /veh EBF3 (11725865_a_at) / RFU CAMK2N1 (11719241_x_at) / Fold change /veh CAMK2N1 (11719241_x_at) / RFU C5orf56 (11738088_a_at) / Fold change /veh C5orf56 (11738088_a_at) / RFU OLFML3 (11715873_a_at) / Fold change /veh OLFML3 (11715873_a_at) / RFU LOC100653217 /// NTM (11731650_a_at) / Fold change /veh LOC100653217 /// NTM (11731650_a_at) / RFU MAPK11 (11762145_a_at) / Fold change /veh MAPK11 (11762145_a_at) / RFU FIZ1 (11724087_x_at) / Fold change /veh FIZ1 (11724087_x_at) / RFU OASL (11726364_x_at) / Fold change /veh OASL (11726364_x_at) / RFU SOX15 (11748057_x_at) / Fold change /veh SOX15 (11748057_x_at) / RFU CD79A (11719716_a_at) / Fold change /veh CD79A (11719716_a_at) / RFU HIST1H1D (11736915_at) / Fold change /veh HIST1H1D (11736915_at) / RFU CASKIN2 (11723855_a_at) / Fold change /veh CASKIN2 (11723855_a_at) / RFU LOC730098 (11760151_x_at) / Fold change /veh LOC730098 (11760151_x_at) / RFU OR4N2 (11742367_at) / Fold change /veh OR4N2 (11742367_at) / RFU PRRT2 (11749266_a_at) / Fold change /veh PRRT2 (11749266_a_at) / RFU SNX32 (11753110_a_at) / Fold change /veh SNX32 (11753110_a_at) / RFU CDHR5 (11726645_a_at) / Fold change /veh CDHR5 (11726645_a_at) / RFU RCAN1 (11760418_a_at) / Fold change /veh RCAN1 (11760418_a_at) / RFU FAM167A (11723789_a_at) / Fold change /veh FAM167A (11723789_a_at) / RFU FAM26E (11764081_at) / Fold change /veh FAM26E (11764081_at) / RFU ISYNA1 (11749810_s_at) / Fold change /veh ISYNA1 (11749810_s_at) / RFU ACY1 (11761880_at) / Fold change /veh ACY1 (11761880_at) / RFU 11764098_at / Fold change /veh 11764098_at / RFU SAMD14 (11745864_x_at) / Fold change /veh SAMD14 (11745864_x_at) / RFU NPB (11741838_a_at) / Fold change /veh NPB (11741838_a_at) / RFU TMPRSS6 (11731388_a_at) / Fold change /veh TMPRSS6 (11731388_a_at) / RFU KRTAP10-2 (11738614_at) / Fold change /veh KRTAP10-2 (11738614_at) / RFU ARHGAP8 /// PRR5-ARHGAP8 (11727945_x_at) / Fold change /veh ARHGAP8 /// PRR5-ARHGAP8 (11727945_x_at) / RFU KRTAP5-7 /// NADSYN1 (11734609_at) / Fold change /veh KRTAP5-7 /// NADSYN1 (11734609_at) / RFU RASL12 (11751679_a_at) / Fold change /veh RASL12 (11751679_a_at) / RFU CDKN2B (11736163_a_at) / Fold change /veh CDKN2B (11736163_a_at) / RFU PRF1 (11729649_at) / Fold change /veh PRF1 (11729649_at) / RFU, ZNF638 /// ZNF638-IT1 / Fold change vs veh, ZNF638 /// ZNF638-IT1 / RFU, PANK3 / Fold change vs veh, PANK3 / RFU, SH3YL1 / Fold change vs veh, SH3YL1 / RFU, ZEB2 / Fold change vs veh, ZEB2 / RFU, NRIP1 / Fold change vs veh, NRIP1 / RFU, PTTG1IP / Fold change vs veh, PTTG1IP / RFU, CAPN2 / Fold change vs veh, CAPN2 / RFU, MED14 / Fold change vs veh, MED14 / RFU, SNORA58 / Fold change vs veh, SNORA58 / RFU, C1orf63 / Fold change vs veh, C1orf63 / RFU, LRRFIP1 / Fold change vs veh, LRRFIP1 / RFU, NDUFAF7 / Fold change vs veh, NDUFAF7 / RFU, SLC12A2 / Fold change vs veh, SLC12A2 / RFU, IBTK / Fold change vs veh, IBTK / RFU, ESF1 / Fold change vs veh, ESF1 / Fold change vs veh, TMEM50B / RFU, TAOK1 / Fold change vs veh, TAOK1 / RFU, ACBD3 / Fold change vs veh, ACBD3 / RFU, TMA16 / Fold change vs veh, TMA16 / RFU, RWDD3 / Fold change vs veh, RWDD3 / RFU, BCAT1 / Fold change vs veh, BCAT1 / RFU, EDEM3 / Fold change vs veh, EDEM3 / RFU, TMEM33 / Fold change vs veh, TMEM33 / RFU, WDR75 / Fold change vs veh, WDR75 / RFU, AHCTF1 / Fold change vs veh, AHCTF1 / RFU, TFRC / Fold change vs veh, TFRC / RFU, ZDHHC17 / Fold change vs veh, ZDHHC17 / RFU, NOM1 / Fold change vs veh, NOM1 / RFU, ARL8B / Fold change vs veh, ARL8B / RFU, ZBTB11 / Fold change vs veh, ZBTB11 / RFU, TAMM41 / Fold change vs veh, TAMM41 / RFU, KIAA1704 /// LOC100996395 / Fold change vs veh, KIAA1704 /// LOC100996395 / RFU, ING1 / Fold change vs veh, ING1 / RFU, TRMT61B / Fold change vs veh, TRMT61B / RFU, FUBP3 / Fold change vs veh, FUBP3 / RFU, TP53 / Fold change vs veh, TP53 / RFU, TNKS2 / Fold change vs veh, TNKS2 / RFU, ZFP14 / Fold change vs veh, ZFP14 / RFU, ACTR2 / Fold change vs veh, ACTR2 / RFU, PPP3R1 / Fold change vs veh, PPP3R1 / RFU, PIK3R1 / Fold change vs veh, PIK3R1 / RFU, HNRNPA1 / Fold change vs veh, HNRNPA1 / RFU, RNF170 / Fold change vs veh, RNF170 / RFU, ZNF28 / Fold change vs veh, ZNF28 / RFU, RNGTT / Fold change vs veh, RNGTT / RFU, OGT / Fold change vs veh, OGT / RFU, BRD1 / Fold change vs veh, BRD1 / RFU, MARS / Fold change vs veh, MARS / RFU, ZNF655 / Fold change vs veh, ZNF655 / RFU, FAHD1 / Fold change vs veh, FAHD1 / RFU, BDP1 / Fold change vs veh, BDP1 / RFU, LRRCC1 / Fold change vs veh, LRRCC1 / RFU, ARID1A / Fold change vs veh, ARID1A / RFU, ZNF146 / Fold change vs veh, ZNF146 / RFU, ZNF330 / Fold change vs veh, ZNF330 / RFU, GPN3 / Fold change vs veh, GPN3 / RFU, C9orf123 / Fold change vs veh, C9orf123 / RFU, N4BP2L2 / Fold change vs veh, N4BP2L2 / RFU, ARFIP1 / Fold change vs veh, ARFIP1 / RFU, FAM179B / Fold change vs veh, FAM179B / RFU, BCL10 / Fold change vs veh, BCL10 / RFU, UHRF1BP1L / Fold change vs veh, UHRF1BP1L / RFU, BET1 / Fold change vs veh, BET1 / RFU, CNOT2 / Fold change vs veh, CNOT2 / RFU, ZNF268 / Fold change vs veh, ZNF268 / Fold change vs veh, ZNF507 / RFU, DGCR2 / Fold change vs veh, DGCR2 / RFU, WDSUB1 / Fold change vs veh, WDSUB1 / Fold change vs veh, HSP90B1 /// MIR3652 / RFU, ADSS / Fold change vs veh, ADSS / RFU, GK / Fold change vs veh, GK / RFU, ZNF148 / Fold change vs veh, ZNF148 / RFU, TAF9 / Fold change vs veh, TAF9 / RFU, SLC1A5 / Fold change vs veh, SLC1A5 / RFU, SLMO2 / Fold change vs veh, SLMO2 / RFU, ABCC4 / Fold change vs veh, ABCC4 / RFU, LOC101060439 /// RAP1B / Fold change vs veh, LOC101060439 /// RAP1B / RFU, RFX7 / Fold change vs veh, RFX7 / RFU, GTPBP10 / Fold change vs veh, GTPBP10 / RFU, CNEP1R1 / Fold change vs veh, CNEP1R1 / RFU, BIVM-ERCC5 /// ERCC5 / Fold change vs veh, BIVM-ERCC5 /// ERCC5 / RFU, ILF3 / Fold change vs veh, ILF3 / RFU 11762660_at / Fold change /veh 11762660_at / RFU VCAN (11757783_s_at) / Fold change /veh VCAN (11757783_s_at) / RFU DDX43 (11728927_at) / Fold change /veh DDX43 (11728927_at) / RFU KRT8 (11758188_x_at) / Fold change /veh KRT8 (11758188_x_at) / RFU NKD1 (11759106_at) / Fold change /veh NKD1 (11759106_at) / RFU SRD5A1 (11742802_a_at) / Fold change /veh SRD5A1 (11742802_a_at) / RFU TPSAB1 /// TPSB2 (11721975_s_at) / Fold change /veh TPSAB1 /// TPSB2 (11721975_s_at) / RFU GSTM3 (11746129_a_at) / Fold change /veh GSTM3 (11746129_a_at) / RFU IL23R (11737362_x_at) / Fold change /veh IL23R (11737362_x_at) / RFU TMEM51 (11727254_a_at) / Fold change /veh TMEM51 (11727254_a_at) / RFU PIWIL2 (11732686_x_at) / Fold change /veh PIWIL2 (11732686_x_at) / RFU ORM1 (11744905_x_at) / Fold change /veh ORM1 (11744905_x_at) / RFU CCDC152 (11743942_at) / Fold change /veh CCDC152 (11743942_at) / RFU ECM1 (11717891_a_at) / Fold change /veh ECM1 (11717891_a_at) / RFU IL23R (11748794_a_at) / Fold change /veh IL23R (11748794_a_at) / RFU TNFAIP8L3 (11732012_x_at) / Fold change /veh TNFAIP8L3 (11732012_x_at) / RFU MBOAT4 (11741988_at) / Fold change /veh MBOAT4 (11741988_at) / RFU 11764193_at / Fold change /veh 11764193_at / RFU TMEM53 (11763286_at) / Fold change /veh TMEM53 (11763286_at) / RFU MAGEB2 (11727129_at) / Fold change /veh MAGEB2 (11727129_at) / RFU TMEM200A (11744735_a_at) / Fold change /veh TMEM200A (11744735_a_at) / RFU CCDC152 (11751479_a_at) / Fold change /veh CCDC152 (11751479_a_at) / RFU FAM211A (11726209_a_at) / Fold change /veh FAM211A (11726209_a_at) / RFU RGS16 (11746705_a_at) / Fold change /veh RGS16 (11746705_a_at) / RFU VCAN (11755009_s_at) / Fold change /veh VCAN (11755009_s_at) / RFU RHOB (11743442_s_at) / Fold change /veh RHOB (11743442_s_at) / RFU RGS16 (11720943_a_at) / Fold change /veh RGS16 (11720943_a_at) / RFU RGS16 (11720944_at) / Fold change /veh RGS16 (11720944_at) / RFU, VPS4B / Fold change vs veh, VPS4B / RFU, CREB1 / Fold change vs veh, CREB1 / RFU, DNAJC13 / Fold change vs veh, DNAJC13 / RFU, GNAQ / Fold change vs veh, GNAQ / RFU, CDK5R1 / Fold change vs veh, CDK5R1 / RFU, ZRANB3 / Fold change vs veh, ZRANB3 / RFU, CUL4A / Fold change vs veh, CUL4A / RFU, CCNY / Fold change vs veh, CCNY / RFU, UFL1 / Fold change vs veh, UFL1 / RFU, COG3 / Fold change vs veh, COG3 / RFU, DIAPH2 / Fold change vs veh, DIAPH2 / RFU, SKA2 / Fold change vs veh, SKA2 / RFU, AFF3 / Fold change vs veh, AFF3 / RFU, LMF1 / Fold change vs veh, LMF1 / RFU, IPO11 / Fold change vs veh, IPO11 / RFU, DFFB / Fold change vs veh, DFFB / RFU, FOXP1 / Fold change vs veh, FOXP1 / RFU, CARD8 / Fold change vs veh, CARD8 / RFU, STRN3 / Fold change vs veh, STRN3 / RFU, ADK / Fold change vs veh, ADK / RFU, RASSF2 / Fold change vs veh, RASSF2 / RFU, WIPF1 / Fold change vs veh, WIPF1 / RFU, LARP1B / Fold change vs veh, LARP1B / RFU, RASA1 / Fold change vs veh, RASA1 / RFU, RB1 / Fold change vs veh, RB1 / RFU, PPFIA1 / Fold change vs veh, PPFIA1 / RFU, MAT2A / Fold change vs veh, MAT2A / RFU, CCT5 / Fold change vs veh, CCT5 / RFU, WDR92 / Fold change vs veh, WDR92 / RFU, CUX1 / Fold change vs veh, CUX1 / RFU, TTC7A / Fold change vs veh, TTC7A / RFU, TMEM135 / Fold change vs veh, TMEM135 / RFU, DEPTOR / Fold change vs veh, DEPTOR / RFU, CPM / Fold change vs veh, CPM / RFU, DNAJB6 / Fold change vs veh, DNAJB6 / RFU, CACNA2D3 / Fold change vs veh, CACNA2D3 / RFU, DTX4 / Fold change vs veh, DTX4 / RFU, TFCP2 / Fold change vs veh, TFCP2 / RFU, GMCL1 /// GMCL1P1 / Fold change vs veh, GMCL1 /// GMCL1P1 / RFU, AEBP2 / Fold change vs veh, AEBP2 / RFU, SNHG1 /// SNORD22 /// SNORD25 /// SNORD26 /// SNORD27 /// SNORD28 /// SNORD29 /// SNORD31 / Fold change vs veh, SNHG1 /// SNORD22 /// SNORD25 /// SNORD26 /// SNORD27 /// SNORD28 /// SNORD29 /// SNORD31 / Fold change (Aza/veh), C12orf56 (ProbeSet 11735607_a_at) / Fold change (ACY-1035/veh), C12orf56 (ProbeSet 11735607_a_at) / Fold change (Aza/veh), FGFR1OP (ProbeSet 11751329_s_at) / Fold change (ACY-1035/veh), FGFR1OP (ProbeSet 11751329_s_at) / Fold change (Aza/veh), VPS36 (ProbeSet 11739960_a_at) / Fold change (ACY-1035/veh), VPS36 (ProbeSet 11739960_a_at) / RFU SYPL1 (11715823_x_at) / Fold change /veh SYPL1 (11715823_x_at) / RFU IGFBP7 (11715501_s_at) / Fold change /veh IGFBP7 (11715501_s_at) / RFU REEP3 (11722064_at) / Fold change /veh REEP3 (11722064_at) / RFU IGLL1 (11728026_x_at) / Fold change /veh IGLL1 (11728026_x_at): dose or concentration left out as unconfirmed", "settings": "MV-4-11 cells, 48 hours"}
{"smiles": "Nc1ncn([C@@H]2O[C@H](CO)[C@@H](O)[C@H]2O)c(=O)n1", "note": "[azacitidine]", "values": [{"measurement": "Fold change /veh CLDN22 /// WWC2 (11732394_at)", "result": 1.14}]}
